Test results as given in PMC6804079, “Investigation of 5’-Norcarbocyclic Nucleoside Analogues as Antiprotozoal and Antibacterial Agents” (Molecules, 2019).
≈ marks a conversion by molar mass, not a printed value. Where “and” joins values, the source holds several entries; their conditions need not be identical. Equal entries are not always repeated.

Columns and labels:
M. tuberculosis H37Rv = test: microbe, parasite or virus in culture; format: cell-based; details: Mycobacterium tuberculosis, control drugs at critical concentrations
M. tuberculosis MS-115 = test: microbe, parasite or virus in culture; format: cell-based; details: Mycobacterium tuberculosis, MS115, read-out: M. Tuberculosis MS-115 MIC
[1] = tested on: M. tuberculosis ATCC 25,177 (H37Ra); test: microbe, parasite or virus in culture; format: cell-based, Mycobacterium tuberculosis; details: for MIC: Mycobacterium tuberculosis, read-out: M. Tuberculosis 25,177 MIC
[2] = tested on: T. b. brucei strain Lister 427 (s427-WT); test: resazurin EC50 assay, T. b. brucei wild-type bloodstream forms; format: cell-based, Trypanosoma brucei brucei; details: 48 h + 24 h resazurin, average and SEM, at least three determinations, NE = no effect on cell viability at 100 µM; for EC50: Trypanosoma brucei, 72 h
T. brucei B48 = test: microbe, parasite or virus in culture; format: cell-based, Trypanosoma brucei brucei; details: for EC50: Trypanosoma brucei, read-out: T. Brucei, EC50, B48
T. brucei 2T1 PYR6-5 −/− = test: microbe, parasite or virus in culture; format: cell-based, Trypanosoma brucei brucei; details: for EC50: Trypanosoma brucei, read-out: T. Brucei, EC50, 2T1 PYR6-5 −/−
Tbb-5FURes = test: microbe, parasite or virus in culture; format: cell-based, Trypanosoma brucei brucei; details: for EC50: Trypanosoma brucei, read-out: T. Brucei, EC50, Tbb-5FURes
[3] = tested on: L. mexicana 5FURes (Lmex5FURes); test: microbe, parasite or virus in culture; details: Leishmania mexicana, read-out: L. Mexicana 5FUR, EC50
Method: (§1) Promastigotes of Leishmania mexicana strain MNY/BZ/62/M379 was cultured in a minimal essential medium, HO-MEMO-MEME, supplemented with 10% FBS and 1% of a penicillin/streptomycin solution (Gibco) as described previously [39] at 25 °C. The L. mexicana 5FURes strain was the same strain but adapted in vitro to high levels of 5FU exactly as described for T. brucei [12].
(§2) The resazurin assay for L. mexicana promastigotes was performed exactly as for T. b. brucei, except that incubation times of 72 and 48 h were used before and after the addition of resazurin, respectively, due to the slower metabolism of the dye by Leishmania promastigotes [42].

U-937 cells = test: U-937 cytotoxicity (XTT); format: cell-based; details: 6 days incubation
Method: The U-937 cells used in the cytotoxicity evaluation were obtained from the AIDS Research and Reference Program. The cells were cultured as indicated by the supplier in RPMI-1640 supplemented with 10% heat inactivated FBS, 1% penicillin/streptomycin solution, and 1% L-glutamine.
U-937 cells plated at 2.5 × 10^3 cells/well in a volume of 100 µL were incubated with serially diluted test compounds in a volume of 100 µL for 6 days at 37 °C/5% CO2. Following the incubation, the cells were stained by adding 50 μL tetrazolium dye XTT (Sigma) solution at 5 mg/mL to determine cellular viability and read at 460/650 nm on a spectrophotometer. Toxicity values were calculated using linear regression analysis.

M. smegmatis 700,084 = format: cell-based, Mycobacterium smegmatis; details: tested up to 250 µM
T. vaginalis strain G3 = test: resorufin-based EC50 assay, T. vaginalis; details: Trichomonas vaginalis, read-out: Trichomonas Vaginalis, EC50
Method: The standard metronidazole-susceptible T. vaginalis strain G3was originally obtained from Jeremy Mottram (University of York, UK) and cultured in a modification of Diamond′s medium supplemented with 10% horse serum with a composition as described [40] at 37 °C under anaerobic conditions. Cultures were passaged daily.
Drugs were tested on T. vaginalis using a resorufin-based assay that we developed [40, 43]. The assay is based on the principle that live T. vaginalis trophozoites are, almost uniquely, able to reduce fluorescent, pink resorufin to non-fluorescent, colorless dihydro-resorufin. This conversion was measured as a dose-dependent increase in fluorescence (with dead cells unable to metabolize the fluorophore; λexc 544 nm, λem 599 nm), resulting in a sigmoid curve with variable slope that yielded EC50 values (Prism 6.0). Plates contained 11 doubling dilutions (1 row) and no-drug control for each compound starting at 100 µM under anaerobic conditions as described [40, 43]. Fluorescence was determined in a PheraStar plate reader (BMG Labtech).

[4] = tested on: L. mexicana 5FURes (Lmex5FURes); details: differences in EC50 between wild-type and 5FU-resistant L. mexicana
Method: as §1, §2

[5] = tested on: Staphylococcus aureus NRS384; test: microbe, parasite or virus in culture; format: cell-based; details: NRS384, read-out: extrapolated IC50, growth of S. aureus NRS384
[6] = tested on: L. mexicana WT promastigotes (strain MNY/BZ/62/M379); test: resazurin EC50 assay, L. mexicana promastigotes wild-type; details: 72 h + 48 h resazurin, average and SEM, NE = no effect on cell viability at 100 µM
Method: as §1, §2

Row | Structure (SMILES) | MIC (M. tuberculosis H37Rv) [µg/mL] | MIC [1] | EC50 [2] [µM] | EC50 (T. brucei B48) [µM] | EC50 (T. brucei 2T1 PYR6-5 −/−) [µM] | EC50 (Tbb-5FURes) [µM] | EC50 [3] [µM] | U-937 Cells TC50 (U-937 cells) [µM] | EC50 (T. vaginalis strain G3) [µM] | other results
1 | NNC(=O)c1ccncc1 [Isoniazid, reference compound] | 0.1 (≈ 0.729 µM) |  |  |  |  |  |  |  |  | MIC (M. tuberculosis MS-115): > 100 µg/mL
2 | CO[C@H]1/C=C/O[C@@]2(C)Oc3c(C)c(O)c4c(O)c(c(/C=N/N5CCN(C)CC5)c(O)c4c3C2=O)NC(=O)/C(C)=C\C=C\[C@H](C)[C@H](O)[C@@H](C)[C@@H](O)[C@@H](C)[C@H](OC(C)=O)[C@@H]1C [Rifampicin, reference compound] | 1 (≈ 1.22 µM) | 0.19 µM and 0.16 µg/mL |  |  |  |  |  |  |  | MIC (M. tuberculosis MS-115): > 50 µg/mL
3 | N=C(N)c1ccc(OCCCCCOc2ccc(C(=N)N)cc2)cc1 [Pentamidine, reference compound] |  |  | 0.0032 ± 0.0004 | 0.71 ± 0.03 | 0.0031 ± 0.0004 | 0.0034 ± 0.0004 | 1.63 ± 0.18 |  |  | fold resistance, B48 versus wild-type (T. brucei B48; higher EC50 against multi-drug resistant strain B48): 219 fold
4 | CCCCCc1ccc(C#Cc2cn([C@H]3C=C[C@@H](O)C3)c(=O)n([C@H]3C=C[C@@H](O)C3)c2=O)cc1 [Compound 8] | > 50 | 31 µM and 13.9 µg/mL | ~8 | 11 ± 0.6 | 15.4 ± 0.7 | 12 ± 1.2 | 27.5 ± 2.3 | 17.3 | 36.9 ± 0.18 | concentration completely inhibiting growth of M. smegmatis (M. smegmatis 700,084): 250 µM
5 | CCCCCCCCC#Cc1cn([C@H]2C=C[C@@H](O)C2)c(=O)n([C@H]2C=C[C@@H](O)C2)c1=O [Compound 3, 1-[4′-Hydroxy-2′-cyclopenten-1′-yl]-3-(4′′-hydroxy-2′′-cyclopent-en-1′′-yl)-5-decynyluracil] | 50 (≈ 121 µM) | 31 µM and 12.8 µg/mL | ~13 | 14.7 ± 0.2 | 17.1 ± 1.2 | 19.9 ± 0.7 | 25.8 ± 0.4 | 2.2 | 32 ± 0.001 | MIC (M. tuberculosis MS-115): 50 µg/mL (≈ 121 µM)
6 | O=c1[nH]cc(F)c(=O)[nH]1 [5-Fluorouracil, reference compound] |  |  | 87 ± 6.4 | 101 ± 7 | 2.33 ± 0.35 | 2500 ± 76 | 3520 ± 440 |  |  | fold difference in EC50, PYR6-5 −/− versus wild-type (T. brucei 2T1 PYR6-5 −/−; sensitization for 5FU, reduction in trypanocidal activity for test compounds): 37.4 fold; fold difference in EC50, 5FURes versus wild-type (Tbb-5FURes; resistance to 5FU, reduction in trypanocidal activity for test compounds): 28.7 fold; fold resistance, Lmex5FURes versus wild-type [4]: > 400 fold
7 | CC(C)(C)c1ccc(C#Cc2cn([C@H]3C=C[C@@H](O)C3)c(=O)n([C@H]3C=C[C@@H](O)C3)c2=O)cc1 [Compound 7, 1-[4′-Hydroxy-2′-cyclopenten-1′-yl]-3-(4′′-hydroxy-2′′-cyclopent-en-1′′-yl)-5-(4-tertbutylphenynylethenyl)uracil] | > 50 | 62.5 µM and 27 µg/mL | ~8 | 10.8 ± 0.6 | 14.7 ± 0.4 | 12.6 ± 1.4 | 45.3 ± 2.2 | 22.5 | 52.8 ± 0.007 | concentration completely inhibiting growth of M. smegmatis (M. smegmatis 700,084): 250 µM
8 | Cc1ncc([N+](=O)[O-])n1CCO [Metronidazole, reference compound] |  |  |  |  |  |  |  |  | 0.53 ± 0.1 | 
9 | CCCCCCC#Cc1cn([C@H]2C=C[C@@H](O)C2)c(=O)n([C@H]2C=C[C@@H](O)C2)c1=O [Compound 4, 1-[4′-Hydroxy-2′-cyclopenten-1′-yl]-3-(4′′-hydroxy-2′′-cyclopent-en-1′′-yl)-5-octynyluracil] | > 50 | 31 µM and 11.9 µg/mL | ~13 | 17.7 ± 1 | 17.5 ± 1.2 | 24.9 ± 0.5 | 47.3 ± 0.4 | 73.8 | 54.1 ± 0.002 | 
10 | NC[C@H]1O[C@H](O[C@H]2[C@H](O)[C@@H](O[C@H]3O[C@H](CO)[C@@H](O)[C@H](N)[C@H]3O)[C@H](N)C[C@@H]2N)[C@H](O)[C@@H](O)[C@@H]1O [Kanamycin, reference compound] |  |  |  |  |  |  |  |  |  | M. Tuberculosis 25,177 MIC [1]: 6.5 µM and 3.13 µg/mL
11 | C[C@H]1COc2c(N3CCN(C)CC3)c(F)cc3c(=O)c(C(=O)O)cn1c23 [Levofloxacin, reference compound] | 1.5 (≈ 4.15 µM) |  |  |  |  |  |  |  |  | MIC (M. tuberculosis MS-115): 1.5 µg/mL (≈ 4.15 µM)
12 | CCCC#Cc1cn([C@H]2C=C[C@@H](O)C2)c(=O)n([C@H]2C=C[C@@H](O)C2)c1=O [Compound 5, 1-[4′-Hydroxy-2′-cyclopenten-1′-yl]-3-(4′′-hydroxy-2′′-cyclopent-en-1′′-yl)-5-pentynyluracil] |  | > 1000 µM and > 342 µg/mL | > 100 | > 100 | > 100 | > 100 | > 100 | 88.5 | 73.5 ± 0.08 | 
13 | O=c1c(C#Cc2ccccc2)cn([C@H]2C=C[C@@H](O)C2)c(=O)n1[C@H]1C=C[C@@H](O)C1 [Compound 6] |  | 500 µM and 188 µg/mL | > 100 | > 100 | > 100 | > 100 | > 100 | 166.2 | 70.2 ± 0.06 | 
14 | O=C(NCC#Cc1cn([C@H]2C=C[C@@H](O)C2)c(=O)n([C@H]2C=C[C@@H](O)C2)c1=O)C(F)(F)F [Compound 10, 1-[4′-Hydroxy-2′-cyclopenten-1′-yl]-3-(4′′-hydroxy-2′′-cyclopent-en-1′′-yl)-5-(trifluoroacetamidepropynyl)uracil] |  | > 1000 µM and > 425 µg/mL | > 100 | > 100 | > 100 | > 100 | > 100 | 78.0 | 69.2 ± 0.05 | T. Brucei, EC50, S427-WT [2]: little or no activity at the highest concentration tested; IC50 [5]: ~100 µM
15 | CCCCCCCCCc1ccc(OCCOCCOCCOCCOCCOCCOCCOCCOCCO)cc1 [Compound N9, Nonoxynol-9, reference compound] |  |  |  |  |  |  |  |  |  | U-937 Cells TC50 (U-937 cells; positive control): 6.5 µg/mL; U-937 Cells TC50 (U-937 cells; positive control, listed as Nonoxynol-9): toxic at the expected concentration
16 | O=c1c(C#CCO)cn([C@H]2C=C[C@@H](O)C2)c(=O)n1[C@H]1C=C[C@@H](O)C1 [Compound 9, 1-[4′-Hydroxy-2′-cyclopenten-1′-yl]-3-(4′′-hydroxy-2′′-cyclopent-en-1′′-yl)-5-(hydroxypropynyl)uracil] |  | 1000 µM and 330 µg/mL | 66.8 ± 6.6 | 76.8 ± 4.4 | 59.9 ± 1 | 74.9 ± 3.5 | > 100 | >100 | 84.8 ± 0.004 | L. Mexicana WT, EC50 [6]: did not show any antileishmanial activity at all
17 | CCCCCCCCCCC#Cc1cn([C@H]2C=C[C@@H](O)C2)c(=O)n([C@H]2C=C[C@@H](O)C2)c1=O [Compound 2, 1-[4′-Hydroxy-2′-cyclopenten-1′-yl]-3-(4′′-hydroxy-2′′-cyclopent-en-1′′-yl)-5-dodecynyluracil] | > 50 | 31 µM and 13.6 µg/mL | 3.1 | 4 ± 0.4 | 5.5 ± 0.5 | 5.2 ± 0.6 | 51.1 ± 0.6 | 22.1 | 48.9 ± 0.05 | 
18 | CCOC(=O)C#Cc1cn([C@H]2C=C[C@@H](O)C2)c(=O)n([C@H]2C=C[C@@H](O)C2)c1=O [Compound 11, 1-[4′-Hydroxy-2′-cyclopenten-1′-yl]-3-(4′′-hydroxy-2′′-cyclopent-en-1′′-yl)-5-(ethyloxycarbonylpropynyl)uracil] |  | 1000 µM and 372 µg/mL | > 100 | > 100 | > 100 | > 100 | > 100 | 21.6 | 53.8 ± 0.74 | T. Brucei, EC50, S427-WT [2]: little or no activity at the highest concentration tested; IC50 [5]: ~100 µM
